{"source": "patent US20250002527A1", "about": "“STEROID COMPOUND AND CONJUGATE THEREOF” (DUALITY BIOLOGICS (SUZHOU) CO., LTD., priority 2021, published 2025)", "type_in_all_cases": "cell-based", "key": {"[1]": {"biological_target": "T1, MR (Homo sapiens, UniProt P08235)", "T1 construct": "expressed in transfected cells; host or cells: HEK293", "T1 sequence (P08235 1-984)": "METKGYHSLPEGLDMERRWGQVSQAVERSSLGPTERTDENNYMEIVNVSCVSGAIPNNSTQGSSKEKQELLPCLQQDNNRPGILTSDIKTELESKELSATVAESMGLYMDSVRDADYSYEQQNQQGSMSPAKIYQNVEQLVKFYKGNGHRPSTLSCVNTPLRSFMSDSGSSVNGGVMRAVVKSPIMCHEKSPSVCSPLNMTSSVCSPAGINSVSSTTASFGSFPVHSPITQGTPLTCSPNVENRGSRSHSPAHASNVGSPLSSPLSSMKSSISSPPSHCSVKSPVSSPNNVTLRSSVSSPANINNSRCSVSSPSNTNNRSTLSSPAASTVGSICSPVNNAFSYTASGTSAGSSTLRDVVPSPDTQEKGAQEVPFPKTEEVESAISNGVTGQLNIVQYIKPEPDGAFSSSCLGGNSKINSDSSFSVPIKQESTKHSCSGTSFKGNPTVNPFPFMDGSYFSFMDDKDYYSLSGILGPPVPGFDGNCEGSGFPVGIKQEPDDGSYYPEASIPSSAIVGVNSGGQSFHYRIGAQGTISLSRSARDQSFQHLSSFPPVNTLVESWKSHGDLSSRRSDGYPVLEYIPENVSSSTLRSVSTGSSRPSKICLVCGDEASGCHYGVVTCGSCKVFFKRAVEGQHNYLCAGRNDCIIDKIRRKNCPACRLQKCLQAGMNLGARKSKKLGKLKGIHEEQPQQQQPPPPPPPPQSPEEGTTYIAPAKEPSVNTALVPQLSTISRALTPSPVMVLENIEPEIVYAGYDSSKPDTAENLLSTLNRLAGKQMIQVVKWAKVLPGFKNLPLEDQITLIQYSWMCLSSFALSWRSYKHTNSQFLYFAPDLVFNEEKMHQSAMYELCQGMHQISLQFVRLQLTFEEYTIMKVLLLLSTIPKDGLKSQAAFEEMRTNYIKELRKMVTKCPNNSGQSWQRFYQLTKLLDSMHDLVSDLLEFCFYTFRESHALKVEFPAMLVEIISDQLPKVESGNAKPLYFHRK", "test": "MR luciferase reporter gene experiment", "conditions": "HEK293 transfected with pBIND-MR", "method": "(§1) HEK293 cells were cultured in DMEM+10% FBS medium in a carbon dioxide incubator humidified at 37° C. at 5% carbon dioxide.\n(§2) • 1) HEK293 cells were trypsinized, and the HEK293 cell resuspension was adjusted to 200,000 cell/mL in medium (96 well plate: 100 μL/well). • 2) Transfection reagent mixtures were prepared according to the table below, mixed well and left at room temperature for 20 minutes.\n(§3) • 3) The prepared transfection mixtures were added to 10 mL of the cell density-adjusted resuspension, mixed well by turning the mixtures upside down, and seeded into a 96-well plate at a volume of 100 μL/well. • 4) The 96-well plate was incubated in a humidified incubator at 37° C. and 5% carbon dioxide for 24 hours.\n(§4) The test plate was detected using the Dual-Glo Luciferase Assay System kit from Promega, and the fluorescence signal of Firefly Luciferase and the fluorescence signal of Renilla Luciferase were read using Enspire, respectively.\n(§5) Y is the agonism and X is the concentration of the compound."}, "[2]": {"biological_target": "T2, ERα (Homo sapiens, UniProt P03372)", "T2 sequence (P03372 311-547 limits assumed)": "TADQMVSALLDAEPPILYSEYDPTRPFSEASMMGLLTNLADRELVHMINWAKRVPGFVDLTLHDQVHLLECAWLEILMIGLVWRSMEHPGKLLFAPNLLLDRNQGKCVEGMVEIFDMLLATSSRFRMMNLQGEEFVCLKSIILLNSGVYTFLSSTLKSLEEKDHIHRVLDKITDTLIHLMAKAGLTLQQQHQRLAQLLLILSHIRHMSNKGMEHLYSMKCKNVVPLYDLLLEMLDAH", "test": "ERα luciferase reporter gene experiment", "conditions": "HEK293 transfected with pBIND-ERα", "method": "as §1, §2, §3, §4, §5"}, "[3]": {"biological_target": "T3, glucocorticoid receptor (Homo sapiens, UniProt P04150)", "T3 construct": "expressed in transfected cells; host or cells: HEK293", "T3 sequence (P04150 1-777)": "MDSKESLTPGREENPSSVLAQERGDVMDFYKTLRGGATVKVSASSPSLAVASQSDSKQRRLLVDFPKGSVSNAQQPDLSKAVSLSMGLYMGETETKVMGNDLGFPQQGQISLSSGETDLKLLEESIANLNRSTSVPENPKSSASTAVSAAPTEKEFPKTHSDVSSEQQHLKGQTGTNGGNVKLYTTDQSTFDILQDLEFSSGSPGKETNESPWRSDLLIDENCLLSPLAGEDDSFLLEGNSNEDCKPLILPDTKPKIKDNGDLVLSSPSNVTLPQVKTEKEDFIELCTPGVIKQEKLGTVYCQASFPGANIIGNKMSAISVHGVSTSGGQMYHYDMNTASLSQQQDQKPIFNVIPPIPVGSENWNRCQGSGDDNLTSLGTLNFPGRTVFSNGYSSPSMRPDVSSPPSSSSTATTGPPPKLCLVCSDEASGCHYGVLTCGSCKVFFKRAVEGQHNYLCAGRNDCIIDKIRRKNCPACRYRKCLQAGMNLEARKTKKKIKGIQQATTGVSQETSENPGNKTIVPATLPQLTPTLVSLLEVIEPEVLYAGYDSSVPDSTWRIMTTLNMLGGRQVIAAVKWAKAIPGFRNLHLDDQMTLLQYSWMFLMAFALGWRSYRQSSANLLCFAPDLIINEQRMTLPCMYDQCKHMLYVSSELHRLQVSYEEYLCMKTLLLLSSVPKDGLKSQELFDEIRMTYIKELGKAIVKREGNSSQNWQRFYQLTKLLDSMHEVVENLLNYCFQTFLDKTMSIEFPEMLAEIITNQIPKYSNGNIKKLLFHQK", "test": "Measurement 1 of glucocorticoid receptor reporter gene GRE activity", "conditions": "HEK293 transfected with pGL5 and pBIND-GR, 24 hours", "method": "as §1\nThe prepared transfection mixtures were added to 10 mL of the cell density-adjusted resuspension, mixed well by turning the mixtures upside down, and seeded into a 96-well plate at a volume of 100 μL/well.\nas §4\nThe final measurement value was a normalized value “F/R” obtained by dividing the Firefly Luciferase fluorescent signal by the Renilla Luciferase fluorescent signal.\nThe data were copied and pasted into Excel, and the activation rate was obtained through an equation.\nThe data were imported into MS Excel and subjected to curve fitting by using XLFit excel add-in version 5.4.0.8 to obtain an EC50 value.\nas §5"}, "[4]": {"biological_target": "T3, glucocorticoid receptor", "test": "Measurement 2 of glucocorticoid receptor reporter gene GRE activity (HEK293 GRE cells)", "conditions": "24 hours"}, "[5]": {"system": "human PBMC cells", "test": "IFN-α secretion from PBMC under R848 stimulation (compounds)", "conditions": "R848 5 μM, 24 hours, mean ± standard deviation", "method": "The compounds of the present application were tested for their inhibitory effect on the production of peripheral blood monocytes. The peripheral blood monocytes were treated in vitro with the ligand-drug conjugate at different concentrations, and IFNα and TNFα generated by the peripheral blood monocytes were quantitatively detected after a certain time. The compounds of the present invention were evaluated for in-vitro activity.\nThe cryopreserved human PBMC cells were resuspended in a complete medium and counted, and the cell suspension was adjusted to 2.5×10*6 cells/mL with the culture medium. After the suspension was centrifuged to collect the cells the next day, the cells were resuspended using fresh culture medium. Test compounds were diluted to 4-fold final concentration in cell culture medium, 50 μL of the compounds were added into a 96-well cell plate, and 100 μL of diluted cells ([…]) were added into each well of the 96-well plate containing the compounds, followed by addition of 50 μL R848 to a final concentration of 5 μM. The cell plate was incubated at 37° C. with 5% CO2 for 24 hours. The supernatant was collected, and the TNF-α and IFN-α concentration levels in the supernatant were detected using an ELISA kit.\n50 μL of biotinylated antibody working solution was added into each well. After mixing well, the plate was covered with the plate-sealing membrane and incubated at room temperature for 3 hours. […] The procedure was repeated for 3 times. 100 μL of Streptavidin-HRP working solution was added into each well. The plate was covered with the plate-sealing membrane and incubated at room temperature for 20 minutes. The plate was washed for 3 times, 100 μL of TMB liquid was added into each well, and the plate was incubated for 25 minutes at room temperature (18-25° C.) in the dark. The reaction was stopped by adding 100 μL stop solution rapidly to each well. The reading at a wavelength of 450 nm was detected by an M2e instrument within 10 minutes after termination.\nThe contents of TNF-α and IFN-α were calculated from the OD450 values."}}, "data": [{"smiles": "C[C@]12C=CC(=O)C=C1CC[C@@H]1[C@@H]2[C@@H](O)C[C@@]2(C)[C@H]1C[C@H]1O[C@@H](c3ccc(Cc4cccc(CO)c4)cc3)O[C@]12C(=O)CO", "note": "[Compound 3]", "values": [{"measurement": "EC50", "setting": "[1]", "result": "> 1000", "unit": "nM"}, {"measurement": "EC50", "setting": "[2]", "result": "> 1000", "unit": "nM"}]}, {"smiles": "C[C@]12C=CC(=O)C=C1CC[C@@H]1[C@@H]2[C@@H](O)C[C@@]2(C)[C@H]1C[C@H]1O[C@H](c3ccc(Cc4ccc(CO)cc4)cc3)O[C@]12C(=O)CO", "note": "[Compound 4S]", "values": [{"measurement": "EC50", "setting": "[3]", "result": 1.42, "unit": "nM"}]}, {"smiles": "C[C@]12C=CC(=O)C=C1CC[C@@H]1[C@@H]2[C@@H](O)C[C@@]2(C)[C@H]1C[C@H]1O[C@@H](c3ccc(Cc4ccc(CO)c(N)c4)cc3)O[C@]12C(=O)CO", "note": "[Compound 6]", "values": [{"measurement": "EC50", "setting": "[4]", "result": 0.12, "unit": "nM"}, {"measurement": "IFN-α secretion (pg/mL) from PBMC under R848 stimulation", "setting": "[5]; compound 4 nM", "result": "99.8 ± +5.7 pg/mL"}, {"measurement": "IFN-α secretion (pg/mL) from PBMC under R848 stimulation", "setting": "[5]; compound 20 nM", "result": "45.9 ± 45.9", "unit": "pg/mL"}, {"measurement": "IFN-α secretion (pg/mL) from PBMC under R848 stimulation", "setting": "[5]; compound 100 nM", "result": "6.9 ± 6.9", "unit": "pg/mL"}]}]}
